According to US20170059573A1, “METHOD OF DETECTING PEROXYNITRITE USING A COMPLEX OF A SACCHARIDE AND AN ARYLBORONATE-BASED FLUORESCENT PROBE” (UNIVERSITY OF BATH, priority 2014, published 2017):

Tests used:
[1] = Fluorescence titration with peroxynitrite; conditions: saccharide free probe 2 μM; peroxynitrite 60 μM; pH 7.3 PBS
[2] = UV-Vis absorption spectra; format: physicochemical
Method: While the presence of ONOO^− (100 μM), a new peak (A=0.021) at 360 nm developed due to the formation of phenol.

[3] = Fluorescence response to D-fructose binding; conditions: probe 2 μM; D-fructose 100 mM; pH 7.3 buffer
Method: (a) Fluorescence spectra of probe 1 (2 μM) and then addition of D-fructose (100 mM). After addition of D-fructose, the mixtures were stirred for 10 min; (b) Probe 1-D-fructose complex (probe 1, 2 μM; D-fructose, 100 mM) in different concentration of ONOO^−. After addition of peroxynitrite, the mixtures were stirred for 5 min;
The saccharide-boronic acid complexes were formed by mixing free boronic acid (2 μM) with D-fructose (100 mM) for 10 min in situ.
In the case of probe 1, a significant “off-on” signal response is seen on binding with D-fructose due to an inhibition of PET mechanism. From FIG. 3a, the maximum fluorescence intensity of probe 1 (2 μM, λem=525 nm) is increased two-fold in the presence of D-fructose (100 mM) at pH 7.3 buffer solution.

[4] = Fluorescence response to hydrogen peroxide
Method: The pH was adjusted from 7.30 to 8.10 using aqueous sodium hydroxide (10 N); (b) Fluorescence spectra of probe 1-D-fructose complex (probe 1, 2 μM; D-fructose, 100 mM) in the presence of hydrogen peroxide (1 mM) at pH 7.3 buffer solution. The spectra were collected at increasing reaction times with excitation at 410 nm (Ex slit: 5.0, Em slit: 5.0);
The concentration of hydrogen peroxide (H2O2) was determined from the absorption at 240 nm (ε=43.6 M^−1 cm^−1).
Since boronate-based derivatives can be oxidized to phenol by H2O2 and ONOO^−, it is important to discriminate them by fluorescence tools. Independently, the present inventors tested the responses of probe 1 and 1-D-fructose complex towards hydrogen peroxide (FIG. 7). With the free boronic acid system, the fluorescence of probe 1 (2 μM) increased to F/F0=ca. 1.59 in the presence of hydrogen peroxide (100 μM) over 1 h at pH 7.30 buffer solution. When the solution was adjusted to pH 8.10, the fluorescence decreased most probably due to the decomposition of the intermediate to phenol (FIG. 7a). This is different from the process observed for the detection of ONOO^− in which boronic acid was transformed into phenol quickly and directly.
The fluorescence reaction of 1-D-fructose complex towards ONOO^− amd H2O2 at pH 5.0 buffer solution in order to mimic the acidic conditions found in cancer cells (FS5) was also studied. […]

[5] = pH titration of fluorescence intensity; format: physicochemical; conditions: probe 2 μM
Method: As shown by FIG. 2, the fluorescence intensity of the probe 1 decreased at pH values above 8.0. […] Thus, the probe can be expected to work well under physiological conditions (pH 7.30, PBS buffer). In the presence of D-fructose (100 mM), the fluorescence of the formed 1-D-fructose complex increases due to the enhanced N—B interaction at different pH values. The fluorescence of 1-D-fructose complex decreases over a pH range of 3-11.

maximum absorption A at 440 nm ([2]; free boronic acid probe 2 μM): 0.026 | absorption A of new peak at 360 nm ([2]; in presence of ONOO− 100 μM): 0.021 | absorption A at the maximum absorption wavelength ([2]; probe 2 μM with D-fructose 100 mM): 0.019 | increase of maximum fluorescence intensity (λem=525 nm) in presence of D-fructose [3]: two-fold | pH effect on fluorescence intensity ([5]; pH range between 3.0 and 8.0): minimal effect | pH effect on fluorescence intensity ([5]; pH values above 8.0): decreased
Compound: CN(CCNc1ccc2c3c(cccc13)C(=O)N(CCOCCO)C2=O)Cc1ccccc1B(O)O [probe 1]
F/F0 [1]: ca. 0.10 | F/F0 ([4]; free boronic acid probe 2 μM, hydrogen peroxide 100 μM over 1 h, pH 7.30 buffer): ca. 1.59 | fluorescence after adjusting the solution to pH 8.10 ([4]; probe 2 μM after H2O2 100 μM, pH adjusted from 7.30 to 8.10): decreased
